From PubChem BioAssay (NCI)
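How tested: cells in 96-well plates exposed to compound for 48 hours at five concentrations. GI50 marks 50% less growth. TGI is the concentration that stops growth completely.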

Columns and labels:
Experiment in all cases: NCI tumour cell line growth inhibition, 48 h
[1] = system: 786-0 renal
[2] = system: A498 renal
[3] = system: A549 NSCLC
[4] = system: ACHN renal
[5] = system: BT-549 breast
[6] = system: CCRF-CEM leukemia
[7] = system: COLO 205 colon
[8] = system: DU-145 prostate
[9] = system: EKVX NSCLC
[10] = system: HCC-2998 colon
[11] = system: HCT-116 colon
[12] = system: HCT-15 colon
[13] = system: HL-60(TB) leukemia
[14] = system: HOP-62 NSCLC
[15] = system: HOP-92 NSCLC
[16] = system: HS 578T breast
[17] = system: HT29 colon
[18] = system: IGROV1 ovarian
[19] = system: K-562 leukemia
[20] = system: KM12 colon
[21] = system: LOX IMVI melanoma
[22] = system: M14 melanoma
[23] = system: MALME-3M melanoma
[24] = system: MCF7 breast
[25] = system: MDA-MB-231 breast
[26] = system: MDA-MB-435
[27] = system: MOLT-4 leukemia
[28] = system: NCI-H226 lung
[29] = system: NCI-H23 lung

O=C(N/N=C/c1c(Cl)cccc1Cl)c1cccnc1Nc1cccc(C(F)(F)F)c1
GI50 [1]: 3.87 µM | TGI [1]: 27.9 µM | GI50 [2]: 3.13 µM | TGI [2]: 32.8 µM | GI50 [3]: 4.69 µM | TGI [3]: > 100 µM | GI50 [4]: 3.04 µM | TGI [4]: 20.8 µM | GI50 [5]: 3.28 µM | TGI [5]: 55.5 µM | GI50 [6]: 0.323 µM | TGI [6]: 10.8 µM | GI50 [7]: 2.9 µM | TGI [7]: 37.9 µM | GI50 [8]: 5.35 µM | TGI [8]: > 100 µM | GI50 [9]: 2.25 µM | TGI [9]: 27.4 µM | GI50 [10]: 3.86 µM | TGI [10]: > 100 µM | GI50 [11]: 1.53 µM | TGI [11]: 18.1 µM | GI50 [12]: 0.668 µM | TGI [12]: > 100 µM | GI50 [13]: 3.15 µM | TGI [13]: 34.1 µM | GI50 [14]: 3.97 µM | TGI [14]: 20.8 µM | GI50 [15]: 4.01 µM | TGI [15]: 25.5 µM | GI50 [16]: 3.59 µM | TGI [16]: 26.2 µM | GI50 [17]: 4.7 µM | TGI [17]: > 100 µM | GI50 [18]: 2.41 µM | TGI [18]: 54.9 µM | GI50 [19]: 3.57 µM | TGI [19]: > 100 µM | GI50 [20]: 3.24 µM | TGI [20]: 57.3 µM | GI50 [21]: 1.83 µM | TGI [21]: 19 µM | GI50 [22]: 2.72 µM | TGI [22]: 17.1 µM | GI50 [23]: 2.95 µM | TGI [23]: 10.8 µM | GI50 [24]: 3.92 µM | TGI [24]: > 100 µM | GI50 [25]: 5.16 µM | TGI [25]: 72 µM | GI50 [26]: 3.8 µM | TGI [26]: > 100 µM | GI50 [27]: 0.942 µM | TGI [27]: > 100 µM | GI50 [28]: 2.44 µM | TGI [28]: 21.9 µM | GI50 [29]: 6.35 µM
